The remaining activity is the signal under treatment as a percentage of the control signal.

Remaining activity data for 4 molecules are collected here from paper PMC6757289, “Design and Characterization of SGK3-PROTAC1, an Isoform Specific SGK3 Kinase PROTAC Degrader” (ACS Chemical Biology, 2019).

Holding throughout (test): kinase profiling panel
Common to all, as to type: biochemical
Common to all, as to conditions: read-out: % Activity Remaining

The target of one assay is CK2 (Homo sapiens, UniProt P68400). The source says: (§1) Protein kinase profiling against a Dundee panel of 140 protein kinases was undertaken at the International Centre for Protein Kinase Profiling. The result for each kinase was presented as a mean kinase activity of the reaction taken in triplicate relative to a control sample treated with DMSO. Assay conditions and abbreviations are available at http://www.kinase-screen.mrc.ac.uk.
CK2, sequence (P68400 whole entry): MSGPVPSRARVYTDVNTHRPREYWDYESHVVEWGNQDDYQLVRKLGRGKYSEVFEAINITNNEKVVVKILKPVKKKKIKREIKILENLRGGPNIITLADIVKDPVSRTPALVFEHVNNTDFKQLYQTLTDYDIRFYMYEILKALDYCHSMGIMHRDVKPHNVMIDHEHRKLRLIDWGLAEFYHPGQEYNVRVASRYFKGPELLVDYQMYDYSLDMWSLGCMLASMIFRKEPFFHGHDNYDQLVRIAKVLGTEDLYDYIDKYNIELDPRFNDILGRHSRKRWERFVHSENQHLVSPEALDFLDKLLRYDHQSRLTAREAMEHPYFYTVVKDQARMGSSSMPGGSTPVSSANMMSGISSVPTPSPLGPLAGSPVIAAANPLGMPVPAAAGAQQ

In a further assay the target is T1, EPH-B4 (Homo sapiens, UniProt P54760).
T1 sequence (P54760 16-987): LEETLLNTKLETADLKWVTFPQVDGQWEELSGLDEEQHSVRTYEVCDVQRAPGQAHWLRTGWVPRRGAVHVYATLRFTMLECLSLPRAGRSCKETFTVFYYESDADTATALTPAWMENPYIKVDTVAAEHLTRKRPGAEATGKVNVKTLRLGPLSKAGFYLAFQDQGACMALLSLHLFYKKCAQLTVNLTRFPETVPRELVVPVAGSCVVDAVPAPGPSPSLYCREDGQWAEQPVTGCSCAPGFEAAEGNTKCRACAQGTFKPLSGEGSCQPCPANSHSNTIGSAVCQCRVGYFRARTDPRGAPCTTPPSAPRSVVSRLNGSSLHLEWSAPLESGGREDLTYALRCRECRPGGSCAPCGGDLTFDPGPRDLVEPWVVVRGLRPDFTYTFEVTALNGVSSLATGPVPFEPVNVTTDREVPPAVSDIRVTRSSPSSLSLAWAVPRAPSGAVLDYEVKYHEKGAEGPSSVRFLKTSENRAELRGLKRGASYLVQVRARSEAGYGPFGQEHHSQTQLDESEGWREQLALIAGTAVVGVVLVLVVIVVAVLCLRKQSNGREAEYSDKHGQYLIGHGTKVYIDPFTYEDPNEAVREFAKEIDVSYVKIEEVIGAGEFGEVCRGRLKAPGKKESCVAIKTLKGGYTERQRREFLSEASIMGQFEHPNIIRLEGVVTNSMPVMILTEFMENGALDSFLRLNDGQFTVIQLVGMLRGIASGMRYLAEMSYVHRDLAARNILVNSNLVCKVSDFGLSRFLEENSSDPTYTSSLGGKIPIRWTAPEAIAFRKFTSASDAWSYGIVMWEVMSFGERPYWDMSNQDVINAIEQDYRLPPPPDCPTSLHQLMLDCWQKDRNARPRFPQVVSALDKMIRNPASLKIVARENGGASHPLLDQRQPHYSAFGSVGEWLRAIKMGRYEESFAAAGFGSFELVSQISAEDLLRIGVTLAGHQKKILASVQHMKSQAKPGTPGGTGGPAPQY
Text: as §1

Another assay concerns the target HIPK1 (Homo sapiens, UniProt Q86Z02).
Text: as §1

For another assay, the target named is T2, TTK (Homo sapiens, UniProt P33981).
T2 sequence (P33981 1-857): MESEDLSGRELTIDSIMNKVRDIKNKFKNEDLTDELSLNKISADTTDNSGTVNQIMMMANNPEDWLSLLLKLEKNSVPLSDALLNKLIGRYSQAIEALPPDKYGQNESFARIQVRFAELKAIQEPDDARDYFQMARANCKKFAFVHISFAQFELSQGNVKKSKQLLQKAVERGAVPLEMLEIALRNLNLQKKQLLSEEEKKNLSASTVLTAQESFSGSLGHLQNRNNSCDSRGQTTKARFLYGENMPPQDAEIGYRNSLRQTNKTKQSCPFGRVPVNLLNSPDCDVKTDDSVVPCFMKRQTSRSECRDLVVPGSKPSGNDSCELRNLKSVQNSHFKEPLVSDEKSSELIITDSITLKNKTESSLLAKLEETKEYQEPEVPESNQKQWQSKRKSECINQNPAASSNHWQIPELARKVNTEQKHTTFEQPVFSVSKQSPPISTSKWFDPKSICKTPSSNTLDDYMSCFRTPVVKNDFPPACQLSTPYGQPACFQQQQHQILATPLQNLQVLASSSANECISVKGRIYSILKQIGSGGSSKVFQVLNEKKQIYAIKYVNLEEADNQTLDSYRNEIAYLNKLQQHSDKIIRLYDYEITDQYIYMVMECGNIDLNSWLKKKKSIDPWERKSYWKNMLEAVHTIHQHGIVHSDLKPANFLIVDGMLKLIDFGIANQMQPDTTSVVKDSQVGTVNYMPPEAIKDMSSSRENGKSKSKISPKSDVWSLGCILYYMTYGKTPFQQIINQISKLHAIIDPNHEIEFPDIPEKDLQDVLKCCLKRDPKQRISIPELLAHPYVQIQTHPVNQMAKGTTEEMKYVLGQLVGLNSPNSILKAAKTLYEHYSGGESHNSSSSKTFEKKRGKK
Text: as §1

Read-outs that look alike come from different tables or passages of the source.

HIPK1, sequence (Q86Z02 whole entry): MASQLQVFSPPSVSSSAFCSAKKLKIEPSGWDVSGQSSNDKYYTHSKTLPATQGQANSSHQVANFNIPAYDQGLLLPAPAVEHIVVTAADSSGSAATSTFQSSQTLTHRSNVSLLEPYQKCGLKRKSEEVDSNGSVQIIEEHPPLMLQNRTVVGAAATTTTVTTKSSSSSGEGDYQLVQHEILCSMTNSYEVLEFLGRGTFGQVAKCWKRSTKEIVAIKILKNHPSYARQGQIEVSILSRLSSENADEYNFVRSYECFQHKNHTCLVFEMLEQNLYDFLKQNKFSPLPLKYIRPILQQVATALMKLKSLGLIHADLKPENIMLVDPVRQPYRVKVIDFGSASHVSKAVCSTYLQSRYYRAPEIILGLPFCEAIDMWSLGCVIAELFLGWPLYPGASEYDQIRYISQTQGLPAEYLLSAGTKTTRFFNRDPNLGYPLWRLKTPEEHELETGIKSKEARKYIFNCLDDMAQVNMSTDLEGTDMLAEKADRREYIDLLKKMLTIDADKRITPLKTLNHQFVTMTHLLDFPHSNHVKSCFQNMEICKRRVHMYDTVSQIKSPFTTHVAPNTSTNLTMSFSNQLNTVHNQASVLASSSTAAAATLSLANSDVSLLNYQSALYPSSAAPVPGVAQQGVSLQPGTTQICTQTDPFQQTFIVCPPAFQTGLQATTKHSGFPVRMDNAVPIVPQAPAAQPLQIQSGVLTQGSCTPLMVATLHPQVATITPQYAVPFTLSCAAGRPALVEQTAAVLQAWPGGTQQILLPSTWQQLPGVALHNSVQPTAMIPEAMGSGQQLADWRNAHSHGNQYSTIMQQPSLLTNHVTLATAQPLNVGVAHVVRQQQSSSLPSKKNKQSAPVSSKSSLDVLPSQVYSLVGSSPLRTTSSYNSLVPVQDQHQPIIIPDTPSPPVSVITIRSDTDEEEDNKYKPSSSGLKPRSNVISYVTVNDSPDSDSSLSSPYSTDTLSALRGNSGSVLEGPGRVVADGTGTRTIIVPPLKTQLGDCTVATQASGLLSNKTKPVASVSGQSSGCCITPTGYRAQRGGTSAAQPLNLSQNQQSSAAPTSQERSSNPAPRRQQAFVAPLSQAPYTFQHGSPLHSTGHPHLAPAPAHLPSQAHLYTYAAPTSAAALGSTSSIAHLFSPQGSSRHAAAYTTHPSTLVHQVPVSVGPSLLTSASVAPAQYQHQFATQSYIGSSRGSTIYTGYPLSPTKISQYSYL

Consider `COc1ccc(Cl)c(S(=O)(=O)Nc2ccc(-c3nc(OC[C@H]4CNCCO4)c4c(C)n[nH]c4n3)cc2)c1` [290-R, reference compound], for which the remaining activity at 1 µM was 100% at CK2 (1 µM), 103% on EPH-B4, 117% at HIPK1 and 76% on TTK.

As for `Cc1ccc(F)c(S(=O)(=O)Nc2ccc(-c3nc(OC[C@H]4CNCCO4)c4cn[nH]c4n3)cc2)c1` [308-R, reference compound], the remaining activity at 1 µM on CK2 turned out to be 103%; on EPH-B4, 124%; on HIPK1, 73%; on TTK, 91%.

With `Cc1ccc(F)c(S(=O)(=O)Nc2ccc(-c3nc(OC[C@H]4CN(CCCCCCOCCOCCOCC(=O)N[C@H](C(=O)N5C[C@H](O)C[C@H]5C(=O)NCc5ccc(-c6scnc6C)cc5)C(C)(C)C)CCO4)c4cn[nH]c4n3)cc2)c1` [SGK3-PROTAC1], the remaining activity at 1 µM came to 90% on CK2 (1 µM), 107% at EPH-B4 (1 µM), 135% at HIPK1 (1 µM) and 89% at TTK (1 µM).

For `Cc1ccc(F)c(S(=O)(=O)Nc2ccc(-c3nc(OC[C@H]4CN(CCCCCCOCCOCCOCC(=O)N[C@H](C(=O)N5C[C@@H](O)C[C@H]5C(=O)NCc5ccc(-c6scnc6C)cc5)C(C)(C)C)CCO4)c4cn[nH]c4n3)cc2)c1` [cisSGK3-PROTAC1], the remaining activity at 1 µM on CK2 (1 µM) was determined as 96%; at EPH-B4 (1 µM), 108%; on HIPK1 (1 µM), 126%; on TTK (1 µM), 99%.
